Where a name gives a salt, the structure may show the parent alone.
What was measured:
PARP-1 = molecular target: T1, PARP-1 (Homo sapiens, UniProt P09874); assay: PARP-1 autoparsylation assay (HTRF); assay type: biochemical; conditions: His-tagged Parp-1, autoparsylation HTRF
T1 construct: purchased Enzo Life Sciences GmbH, Lörrach, Germany
Summary of the method: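 HTRF emission ratio reports biotin-ADP-ribose self-transfer onto His-tagged PARP-1, with biotinylated NAD/NAD as co-substrate, sensed via cryptate anti-His and Xlent-streptavidin.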

TNKS1 = molecular target: T2, TNKS1 (Homo sapiens, UniProt O95271); assay: TNKS1 activity ELISA (autoparsylation assay); assay type: biochemical; conditions: GST-tagged Tnks-1 (1023-1327 aa)
T2 construct: GST-tagged Tnks-1 (1023-1327 aa, prepared in-house); made in house
T2 sequence (O95271 1023-1327): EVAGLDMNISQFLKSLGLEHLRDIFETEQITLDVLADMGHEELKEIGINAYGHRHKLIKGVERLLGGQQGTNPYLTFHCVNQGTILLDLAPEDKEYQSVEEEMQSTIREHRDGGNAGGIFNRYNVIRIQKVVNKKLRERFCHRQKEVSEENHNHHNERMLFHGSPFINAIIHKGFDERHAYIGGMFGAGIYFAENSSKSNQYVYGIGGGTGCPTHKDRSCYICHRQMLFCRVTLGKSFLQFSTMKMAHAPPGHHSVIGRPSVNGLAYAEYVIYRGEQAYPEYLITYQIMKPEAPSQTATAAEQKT
Summary of the method: (§1)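 Autoparsylation ELISA: biotinylated NAD serves as co-substrate for plate-bound GST-TNKS1/TNKS2, incubated with test compounds. Readout is HRP luminescence after streptavidin-HRP binding, referenced to the no-inhibitor reaction, from which IC50 values are derived.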

TNKS2 = molecular target: T3, TNKS2 (Homo sapiens, UniProt Q9H2K2); assay: TNKS2 activity ELISA (autoparsylation assay); assay type: biochemical; conditions: GST-tagged Tnks-2 (873-1166 aa); read-out: IC50 [M] TNKS2 ELISA
T3 construct: GST-tagged Tnks-2 (873-1166 aa, prepared in-house); made in house
T3 sequence (Q9H2K2 873-1166): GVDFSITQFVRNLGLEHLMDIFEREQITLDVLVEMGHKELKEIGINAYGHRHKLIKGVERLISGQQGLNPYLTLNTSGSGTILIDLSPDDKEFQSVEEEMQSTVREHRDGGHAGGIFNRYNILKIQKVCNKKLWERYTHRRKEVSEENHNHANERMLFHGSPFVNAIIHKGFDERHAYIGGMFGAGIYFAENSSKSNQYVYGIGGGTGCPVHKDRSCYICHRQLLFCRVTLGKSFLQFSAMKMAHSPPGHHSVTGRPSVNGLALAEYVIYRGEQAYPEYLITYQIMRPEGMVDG
Summary of the method: as §1

Tankyrases = conditions: read-out: EC50 [M] TNKS cellular assay; DLD1 cells, 24 hours, Axin2 increase

T1 sequence (P09874 whole entry): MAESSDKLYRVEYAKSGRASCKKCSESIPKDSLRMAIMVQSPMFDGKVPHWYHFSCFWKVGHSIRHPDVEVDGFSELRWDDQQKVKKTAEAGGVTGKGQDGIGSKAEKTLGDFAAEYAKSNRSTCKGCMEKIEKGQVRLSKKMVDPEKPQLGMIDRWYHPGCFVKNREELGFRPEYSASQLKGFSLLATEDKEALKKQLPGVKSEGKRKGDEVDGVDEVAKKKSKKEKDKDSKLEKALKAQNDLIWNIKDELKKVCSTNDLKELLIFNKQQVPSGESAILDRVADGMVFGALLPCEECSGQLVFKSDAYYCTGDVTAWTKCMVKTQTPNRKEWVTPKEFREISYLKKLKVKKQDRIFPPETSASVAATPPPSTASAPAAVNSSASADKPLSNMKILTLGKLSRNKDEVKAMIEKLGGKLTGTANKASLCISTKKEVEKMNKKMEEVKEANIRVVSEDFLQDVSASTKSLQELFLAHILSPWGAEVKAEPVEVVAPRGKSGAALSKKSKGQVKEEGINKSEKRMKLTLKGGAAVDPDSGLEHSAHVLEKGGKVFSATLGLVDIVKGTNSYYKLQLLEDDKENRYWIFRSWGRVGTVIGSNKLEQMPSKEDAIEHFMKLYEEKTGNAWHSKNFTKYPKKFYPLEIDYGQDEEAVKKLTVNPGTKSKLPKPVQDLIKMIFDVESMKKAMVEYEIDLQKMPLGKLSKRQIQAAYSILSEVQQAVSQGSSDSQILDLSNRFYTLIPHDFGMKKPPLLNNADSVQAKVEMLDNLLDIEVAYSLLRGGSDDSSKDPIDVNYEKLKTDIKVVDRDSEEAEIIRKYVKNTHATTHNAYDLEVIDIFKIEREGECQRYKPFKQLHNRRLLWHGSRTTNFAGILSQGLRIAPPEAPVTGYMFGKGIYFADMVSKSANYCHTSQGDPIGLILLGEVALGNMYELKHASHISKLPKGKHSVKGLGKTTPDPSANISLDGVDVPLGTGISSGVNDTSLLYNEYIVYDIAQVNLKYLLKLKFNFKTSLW

| Compound | IC50 (PARP-1) [nM] | IC50 (TNKS1) [nM] | IC50 (TNKS2) [M] | EC50 (Tankyrases) [M] |
| --- | --- | --- | --- | --- |
| COc1ccc(C(=O)C2CCN(C(=O)CCCc3nn4cc(C)cc4c(=O)[nH]3)CC2)cc1 [Compound C38, 2-{4-[4-(4-Methoxy-benzoyl)-piperidin-1-yl]-4-oxo-butyl}-6-methyl-3H-pyrrolo[2,1-f][1,2,4]triazin-4-one] | 2400 | 0.28 | 1.1e-10 | 5.4e-09 |
| Cn1ncc2c(=O)[nH]c(CCCC(=O)N3CCC(C(=O)c4ccc(C(C)(F)F)cc4)CC3)nc21 [Compound C245, 6-(4-{4-[4-(1,1-Difluoro-ethyl)-benzoyl]-piperidin-1-yl}-4-oxo-butyl)-1-methyl-1,5-dihydro-pyrazolo[3,4-d]pyrimidin-4-one] | 5800 | 0.41 | 1.7e-10 | 4.8e-09 |
| CC(C)n1cc(C(=O)C2CCN(C(=O)CCCc3cn4cccc4c(=O)[nH]3)CC2)cn1 [Compound C210, 3-{4-[4-(1-Isopropyl-1H-pyrazole-4-carbonyl)-piperidin-1-yl]-4-oxo-butyl}-2H-pyrrolo[1,2-a]pyrazin-1-one] | 7500 | 0.38 | 3.2e-10 | 3.6e-09 |
| Cn1ncc2c(=O)[nH]c(CCCC(=O)N3CCC(c4cnc(N)c(C#N)c4)CC3)nc21 [Compound C44, 6-Amino-1′-[4-(1-methyl-4-oxo-4,5-dihydro-1H-pyrazolo[3,4-d]pyrimidin-6-yl)-butyryl]-1′,2′,3′,4′,5′,6′-hexahydro-[3,4′]bipyridinyl-5-carbonitrile] | 18000 | 1.6 | 9.7e-10 | 4e-07 |
| Cc1csc2c(=O)[nH]c(CCCC(=O)N3CCC(C(=O)c4ccc(C(C)(C)O)cc4)CC3)nc12 [Compound C133, 2-{4-{4-[4-(1-Hydroxy-1-methyl-ethyl)benzoyl]-1-piperidyl}-4-oxo-butyl}-7-methyl-3H-thieno[3,2-d]pyrimidin-4-one] | 1000 | 2.1 | 7.5e-10 | 6.4e-08 |
| COc1ccc(C(=O)C2CCN(C(=O)CCCc3nc4c(C)scc4c(=O)[nH]3)CC2)cc1F [Compound C113, 2-{4-[4-(3-Fluoro-4-methoxy-benzoyl)-piperidin-1-yl]-4-oxo-butyl}-7-methyl-3H-thieno[3,4-d]pyrimidin-4-one] | 29000 | 0.38 | 2.4e-10 | 2.6e-09 |
| COc1ccc(C(=O)C2CCN(C(=O)CCCc3nn4cc(C)cc4c(=O)[nH]3)CC2)cc1C [Compound C165, 2-{4-[4-(4-Methoxy-3-methyl-benzoyl)-piperidin-1-yl]-4-oxo-butyl}-6-methyl-3H-pyrrolo[2,1-f][1,2,4]triazin-4-one] | 2100 | 0.22 | 2.2e-10 | 1.7e-09 |
| CC(C)n1cc(C(=O)C2CCN(C(=O)CCCc3nc4c(c(=O)[nH]3)COCC4)CC2)cn1 [Compound C229, 2-{4-[4-(1-Isopropyl-1H-pyrazole-4-carbonyl)-piperidin-1-yl]-4-oxo-butyl}-3,5,7,8-tetrahydro-pyrano[4,3-d]pyrimidin-4-one] | 24000 | 23 | 2.3e-09 | 1.6e-06 |
| COc1ccc(C(=O)C2CCN(C(=O)CCCc3nc4c(C)csc4c(=O)[nH]3)CC2)cc1C [Compound C132, 2-{4-[4-(4-Methoxy-3-methyl-benzoyl)-1-piperidyl]-4-oxo-butyl}-7-methyl-3H-thieno[3,2-d]pyrimidin-4-one] | 440 | < 0.1 | 1.1e-10 | 7.7e-10 |
| Cc1ccc2c(=O)[nH]c(CCCC(=O)N3CCC(C(=O)c4cnn(C(C)C)c4)CC3)nn12 [Compound C223, 2-{4-[4-(1-Isopropyl-1H-pyrazole-4-carbonyl)-piperidin-1-yl]-4-oxo-butyl}-7-methyl-3H-pyrrolo[2,1-f][1,2,4]triazin-4-one] | 840 | 0.6 | 5.1e-10 | 3.3e-09 |
| N#Cc1ccc(OC2CCN(C(=O)CCCc3nn4cc(F)cc4c(=O)[nH]3)CC2)cc1 [Compound C174, 4-{1-[4-(6-Fluoro-4-oxo-3,4-dihydro-pyrrolo[2,1-f][1,2,4]triazin-2-yl)-butyryl]-piperidin-4-yloxy}-benzonitrile] | 270 | 64 | 4.9e-08 | 7.8e-07 |
| COc1ccc(C(=O)C2CCN(C(=O)CCCc3nn4c(C)ccc4c(=O)[nH]3)CC2)cc1C [Compound C154, 2-{4-[4-(4-Methoxy-3-methyl-benzoyl)-piperidin-1-yl]-4-oxo-butyl}-7-methyl-3H-pyrrolo[2,1-f][1,2,4]triazin-4-one] | 610 | 0.16 | 1.3e-10 | 9.7e-10 |
| CC(C)n1cc(C(=O)C2CCN(C(=O)CCCc3nn4cccc4c(=O)[nH]3)CC2)cn1 [Compound C219, 2-{4-[4-(1-Isopropyl-1H-pyrazole-4-carbonyl)-piperidin-1-yl]-4-oxo-butyl}-3H-pyrrolo[2,1-f][1,2,4]triazin-4-one] | 25000 | 2 | 1.2e-09 | 2.4e-08 |
| COc1ccc(C(=O)C2CCN(C(=O)CCCc3nc4c(C)csc4c(=O)[nH]3)CC2)cc1F [Compound C55, 2-{4-[4-(3-Fluoro-4-methoxy-benzoyl)-piperidin-1-yl]-4-oxo-butyl}-7-methyl-3H-thieno[3,2-d]pyrimidin-4-one] | 400 | 0.18 | 1.2e-10 | 1.9e-09 |
| Cn1ncc2c(=O)[nH]c(CCCC(=O)N3CCC(Oc4ccc(C#N)cc4)CC3)nc21 [Compound C47, 4-{1-[4-(1-Methyl-4-oxo-4,5-dihydro-1H-pyrazolo[3,4-d]pyrimidin-6-yl)-butyryl]-piperidin-4-yloxy}-benzonitrile] | 4400 | 110 | 4.1e-08 | 4.5e-07 |
| O=C(c1ccc(F)cc1)C1CCN(C(=O)CCCc2nc3c(c(=O)[nH]2)COCC3)CC1 [Compound C198, 2-{4-[4-(4-Fluoro-benzoyl)-piperidin-1-yl]-4-oxo-butyl}-3,5,7,8-tetrahydro-pyrano[4,3-d]pyrimidin-4-one] | 5200 | 12 | 4e-09 | 7.5e-08 |
| COc1ccc(C(=O)C2CCN(C(=O)CCCc3cn4c(Cl)ccc4c(=O)[nH]3)CC2)cc1 [Compound C11, 6-Chloro-3-{4-[4-(4-methoxy-benzoyl)-piperidin-1-yl]-4-oxo-butyl}-2H-pyrrolo[1,2-a]pyrazin-1-one] | 2700 | 0.14 | 1.6e-10 | 9e-10 |
| Cc1cc2c(=O)[nH]c(CCCC(=O)N3CCC(C(=O)c4cnn(C)c4)CC3)cn2n1 [Compound C209, 2-Methyl-6-{4-[4-(1-methyl-1H-pyrazole-4-carbonyl)-piperidin-1-yl]-4-oxo-butyl}-5H-pyrazolo[1,5-a]pyrazin-4-one] | 8500 | 0.76 | 7.9e-10 | 1e-08 |
| Cn1cc(C(=O)C2CCN(C(=O)CCCc3cn4cccc4c(=O)[nH]3)CC2)cn1 [Compound C22, 3-{4-[4-(1-Methyl-1H-pyrazole-4-carbonyl)-piperidin-1-yl]-4-oxo-butyl}-2H-pyrrolo[1,2-a]pyrazin-1-one] | 5200 | 0.25 | 3e-10 | 4.5e-09 |
| O=C(c1ccc(Cl)cc1)C1CCN(C(=O)CCCc2nn3cccc3c(=O)[nH]2)CC1 [Compound C237, 2-{4-[4-(4-Chloro-benzoyl)-piperidin-1-yl]-4-oxo-butyl}-3H-pyrrolo[2,1-f][1,2,4]triazin-4-one] | 10000 | 0.66 | 3e-10 | 1e-08 |
| O=C(c1ccc(Cl)cc1)C1CCN(C(=O)CCCc2nc3c(c(=O)[nH]2)COCC3)CC1 [Compound C247, 2-{4-[4-(4-Chloro-benzoyl)-piperidin-1-yl]-4-oxo-butyl}-3,5,7,8-tetrahydro-pyrano[4,3-d]pyrimidin-4-one trifluoroacetate] | 3500 | 3.3 | 6.6e-10 | 2.1e-08 |
| O=C(CCCc1nn2cccc2c(=O)[nH]1)N1CCC(c2nnc(-c3ccccc3)o2)CC1 [Compound C140, 2-{4-Oxo-4-[4-(5-phenyl-[1,3,4]oxadiazol-2-yl)-piperidin-1-yl]-butyl}-3H-pyrrolo[2,1-f][1,2,4]triazin-4-one] | 3600 | 18 | 1e-08 | 1e-07 |
| Cn1cc(C(=O)C2CCN(C(=O)CCCc3nc4c(c(=O)[nH]3)COCC4)CC2)cn1 [Compound C202, 2-{4-[4-(1-Methyl-1H-pyrazole-4-carbonyl)-piperidin-1-yl]-4-oxo-butyl}-3,5,7,8-tetrahydro-pyrano[4,3-d]pyrimidin-4-one] | 18000 | 8.1 | 3.1e-09 | 2.2e-06 |
| COc1ccc(C(=O)C2CCN(C(=O)CCCc3nn4cccc4c(=O)[nH]3)CC2)cc1 [Compound C36, 2-{4-[4-(4-Methoxy-benzoyl)-piperidin-1-yl]-4-oxo-butyl}-3H-pyrrolo[2,1-f][1,2,4]triazin-4-one] | 3500 | 0.39 | 2.8e-10 | 4.1e-09 |

— US9809598B2 (Merck Patent GmbH, priority 2014, dated 2017)
